Source: patent US12240844B2 (Voronoi, Inc., priority 2019, dated 2025)

How the values were obtained:
human DYRK1A and Tau = test: Tau phosphorylation inhibition, ClariCELL Kinase Cell-Based Assay (Carnabio)
How it was run: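 HEK293 cells transiently expressing human DYRK1A and Tau were exposed to compound, then lysed. Released Tau was captured on plate and its phosphorylation quantified by ELISA with a phospho-Tau-specific antibody.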

[1] = target: T1, LRRK2, LRRK2 (G2019S), DYRK1, CLK1 and TTK kinases (Homo sapiens, UniProt P49759); test: Enzyme IC50 by Kinase HotSpot service (Reaction Biology Corporation), values marked with *; assay type: biochemical; conditions: CLK1, ATP 10 uM
T1 construct: CLK1 IC50 (marked with *); other: CLK1; Kinase HotSpot service (Reaction Biology), ATP 10 uM
T1 sequence (P49759 whole entry, stated change not applied): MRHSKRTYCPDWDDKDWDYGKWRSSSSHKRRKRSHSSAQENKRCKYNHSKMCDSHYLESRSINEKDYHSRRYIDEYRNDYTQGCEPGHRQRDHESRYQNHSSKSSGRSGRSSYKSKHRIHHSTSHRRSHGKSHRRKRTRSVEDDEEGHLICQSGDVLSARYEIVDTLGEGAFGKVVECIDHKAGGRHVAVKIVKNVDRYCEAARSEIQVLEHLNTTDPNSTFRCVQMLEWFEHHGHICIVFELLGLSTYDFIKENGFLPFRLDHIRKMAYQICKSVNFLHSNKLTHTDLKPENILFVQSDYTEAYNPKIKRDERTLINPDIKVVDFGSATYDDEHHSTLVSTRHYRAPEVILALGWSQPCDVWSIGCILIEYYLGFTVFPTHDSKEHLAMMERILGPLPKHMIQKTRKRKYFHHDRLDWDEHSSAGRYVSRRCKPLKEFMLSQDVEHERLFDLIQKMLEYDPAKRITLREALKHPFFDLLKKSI
Description: (§1) Meanwhile, the enzyme IC50 measurement for some compounds was performed using Kinase HotSpot service (Reaction Biology Corporation); during the test, the ATP concentration was 10 uM, where all were conducted under the same condition; and the concentration of the compound was measured by giving a 3-fold concentration gradient with the highest concentration of […], where the values measured using Kinase HotSpot service (Reaction Biology Corporation) were marked with “*”.
(§2) All experimental methods were performed as provided in Kinase HotSpot Customer Protocol (http://www.reactionbiology.com//Kinase_Assay_Protocol).
(§3) In the table below, the following designations were used for the evaluation of enzyme inhibitory ability.

[2] = target: T2, LRRK2, LRRK2 (G2019S), DYRK1, CLK1 and TTK kinases (Homo sapiens, UniProt Q5S007); test: as above; assay type: biochemical; conditions: LRRK2, ATP 10 uM
T2 construct: LRRK2 IC50 (marked with *); other: LRRK2; Kinase HotSpot service (Reaction Biology), ATP 10 uM
T2 sequence (Q5S007 whole entry G2019S): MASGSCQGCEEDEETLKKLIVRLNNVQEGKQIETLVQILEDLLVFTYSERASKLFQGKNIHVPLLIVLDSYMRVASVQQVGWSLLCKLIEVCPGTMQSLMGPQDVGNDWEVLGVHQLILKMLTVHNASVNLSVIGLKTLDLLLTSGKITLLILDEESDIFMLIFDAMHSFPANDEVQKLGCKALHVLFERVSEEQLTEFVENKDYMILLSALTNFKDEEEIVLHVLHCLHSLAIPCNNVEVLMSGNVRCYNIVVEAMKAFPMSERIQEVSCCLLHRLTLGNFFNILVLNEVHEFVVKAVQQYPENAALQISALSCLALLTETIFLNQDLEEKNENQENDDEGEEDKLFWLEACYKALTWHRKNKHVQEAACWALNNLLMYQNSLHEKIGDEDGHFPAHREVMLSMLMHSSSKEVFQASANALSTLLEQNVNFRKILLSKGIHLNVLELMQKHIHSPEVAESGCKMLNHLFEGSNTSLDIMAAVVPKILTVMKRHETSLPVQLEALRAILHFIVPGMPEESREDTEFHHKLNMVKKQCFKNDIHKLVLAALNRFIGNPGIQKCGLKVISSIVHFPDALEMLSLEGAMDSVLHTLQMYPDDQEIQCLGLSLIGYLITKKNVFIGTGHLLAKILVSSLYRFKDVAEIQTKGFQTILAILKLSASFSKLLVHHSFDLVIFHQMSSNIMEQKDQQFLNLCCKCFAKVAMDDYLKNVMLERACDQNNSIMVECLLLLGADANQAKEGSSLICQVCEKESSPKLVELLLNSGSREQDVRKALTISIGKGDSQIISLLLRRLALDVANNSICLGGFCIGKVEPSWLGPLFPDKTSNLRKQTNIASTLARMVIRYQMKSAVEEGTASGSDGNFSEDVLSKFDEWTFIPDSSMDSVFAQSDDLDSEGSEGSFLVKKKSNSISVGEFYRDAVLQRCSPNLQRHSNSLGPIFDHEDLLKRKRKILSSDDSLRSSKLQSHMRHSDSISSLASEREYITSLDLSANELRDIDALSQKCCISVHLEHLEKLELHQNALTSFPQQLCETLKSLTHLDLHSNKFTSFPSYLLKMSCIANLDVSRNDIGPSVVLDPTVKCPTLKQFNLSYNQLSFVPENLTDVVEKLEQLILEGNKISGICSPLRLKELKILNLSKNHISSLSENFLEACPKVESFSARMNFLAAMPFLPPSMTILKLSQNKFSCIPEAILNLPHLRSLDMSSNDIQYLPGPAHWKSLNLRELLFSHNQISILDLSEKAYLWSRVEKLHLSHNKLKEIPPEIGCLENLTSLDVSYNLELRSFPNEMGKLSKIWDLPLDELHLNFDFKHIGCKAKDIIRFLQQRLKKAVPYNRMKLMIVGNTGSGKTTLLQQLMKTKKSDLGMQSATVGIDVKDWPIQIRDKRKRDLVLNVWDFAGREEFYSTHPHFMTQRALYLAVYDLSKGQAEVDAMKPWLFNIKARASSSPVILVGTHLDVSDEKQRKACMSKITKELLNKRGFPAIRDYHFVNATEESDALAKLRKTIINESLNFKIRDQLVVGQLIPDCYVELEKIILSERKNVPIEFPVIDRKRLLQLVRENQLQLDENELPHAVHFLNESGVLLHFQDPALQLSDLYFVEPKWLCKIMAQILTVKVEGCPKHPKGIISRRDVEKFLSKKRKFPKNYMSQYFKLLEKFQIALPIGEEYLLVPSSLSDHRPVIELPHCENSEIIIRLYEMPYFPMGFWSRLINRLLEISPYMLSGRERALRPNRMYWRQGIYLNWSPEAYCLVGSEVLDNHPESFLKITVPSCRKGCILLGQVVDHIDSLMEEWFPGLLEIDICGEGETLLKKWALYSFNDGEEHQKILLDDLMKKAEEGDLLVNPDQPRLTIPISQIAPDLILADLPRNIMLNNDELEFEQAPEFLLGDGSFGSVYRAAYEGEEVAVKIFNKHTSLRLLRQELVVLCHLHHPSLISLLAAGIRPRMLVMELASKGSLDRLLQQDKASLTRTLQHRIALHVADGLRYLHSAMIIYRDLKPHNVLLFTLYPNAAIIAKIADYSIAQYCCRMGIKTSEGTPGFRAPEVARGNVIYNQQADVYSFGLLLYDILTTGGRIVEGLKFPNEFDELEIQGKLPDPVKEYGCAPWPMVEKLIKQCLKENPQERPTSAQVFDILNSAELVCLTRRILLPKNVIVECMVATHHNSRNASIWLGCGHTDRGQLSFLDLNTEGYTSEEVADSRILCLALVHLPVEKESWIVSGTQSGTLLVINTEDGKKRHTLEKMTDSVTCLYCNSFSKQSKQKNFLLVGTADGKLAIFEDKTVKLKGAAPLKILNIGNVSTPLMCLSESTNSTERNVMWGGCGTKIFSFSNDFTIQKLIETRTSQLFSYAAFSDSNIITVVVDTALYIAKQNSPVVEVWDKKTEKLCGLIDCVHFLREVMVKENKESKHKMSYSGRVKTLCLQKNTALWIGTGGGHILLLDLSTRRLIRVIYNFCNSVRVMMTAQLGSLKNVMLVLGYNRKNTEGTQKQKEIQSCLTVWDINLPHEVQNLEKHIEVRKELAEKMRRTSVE
Description: as §1, §2, §3

[3] = target: T3, LRRK2, LRRK2 (G2019S), DYRK1, CLK1 and TTK kinases (Homo sapiens, UniProt Q13627); test: as above; assay type: biochemical; conditions: DYRK1, ATP 10 uM
T3 construct: other: DYRK1; Kinase HotSpot service (Reaction Biology), ATP 10 uM
Description: as §1, §2, §3

MDA-MB-231 cell line = test: MDA-MB-231 cancer cell proliferation inhibition (Cell Titer-Glo); assay type: cell-based; conditions: Homo sapiens, MDA-MB-231 triple-negative breast cancer cell line, 72 hours
How it was run: (§4)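 GI50 comes from CellTiter-Glo luminescence, read 10 min after reagent addition at RT, following 72 h compound treatment. Eleven concentrations were used (⅓ steps, highest 10 μM final) on 2000 cells/well. MDA-MB-231 and MDA-MB-468 were grown in DMEM, SHP-77 in RPMI.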

SHP-77 = SHP-77 cancer cell proliferation inhibition (Cell Titer-Glo); assay type: cell-based; conditions: Homo sapiens, SHP77, SHP-77 small cell lung cancer cell line, 72 hours
How it was run: as §4

LRRK2 (G2019S) = LRRK2 (G2019S) (Homo sapiens, UniProt Q5S007, G2019S); test: LRRK2 G2019S enzyme inhibition, ADP-Glo kinase assay; assay type: biochemical; design: purchased SignalChem L10-12GG
LRRK2 (G2019S), sequence (Q5S007 970-2527 G2019S limits assumed): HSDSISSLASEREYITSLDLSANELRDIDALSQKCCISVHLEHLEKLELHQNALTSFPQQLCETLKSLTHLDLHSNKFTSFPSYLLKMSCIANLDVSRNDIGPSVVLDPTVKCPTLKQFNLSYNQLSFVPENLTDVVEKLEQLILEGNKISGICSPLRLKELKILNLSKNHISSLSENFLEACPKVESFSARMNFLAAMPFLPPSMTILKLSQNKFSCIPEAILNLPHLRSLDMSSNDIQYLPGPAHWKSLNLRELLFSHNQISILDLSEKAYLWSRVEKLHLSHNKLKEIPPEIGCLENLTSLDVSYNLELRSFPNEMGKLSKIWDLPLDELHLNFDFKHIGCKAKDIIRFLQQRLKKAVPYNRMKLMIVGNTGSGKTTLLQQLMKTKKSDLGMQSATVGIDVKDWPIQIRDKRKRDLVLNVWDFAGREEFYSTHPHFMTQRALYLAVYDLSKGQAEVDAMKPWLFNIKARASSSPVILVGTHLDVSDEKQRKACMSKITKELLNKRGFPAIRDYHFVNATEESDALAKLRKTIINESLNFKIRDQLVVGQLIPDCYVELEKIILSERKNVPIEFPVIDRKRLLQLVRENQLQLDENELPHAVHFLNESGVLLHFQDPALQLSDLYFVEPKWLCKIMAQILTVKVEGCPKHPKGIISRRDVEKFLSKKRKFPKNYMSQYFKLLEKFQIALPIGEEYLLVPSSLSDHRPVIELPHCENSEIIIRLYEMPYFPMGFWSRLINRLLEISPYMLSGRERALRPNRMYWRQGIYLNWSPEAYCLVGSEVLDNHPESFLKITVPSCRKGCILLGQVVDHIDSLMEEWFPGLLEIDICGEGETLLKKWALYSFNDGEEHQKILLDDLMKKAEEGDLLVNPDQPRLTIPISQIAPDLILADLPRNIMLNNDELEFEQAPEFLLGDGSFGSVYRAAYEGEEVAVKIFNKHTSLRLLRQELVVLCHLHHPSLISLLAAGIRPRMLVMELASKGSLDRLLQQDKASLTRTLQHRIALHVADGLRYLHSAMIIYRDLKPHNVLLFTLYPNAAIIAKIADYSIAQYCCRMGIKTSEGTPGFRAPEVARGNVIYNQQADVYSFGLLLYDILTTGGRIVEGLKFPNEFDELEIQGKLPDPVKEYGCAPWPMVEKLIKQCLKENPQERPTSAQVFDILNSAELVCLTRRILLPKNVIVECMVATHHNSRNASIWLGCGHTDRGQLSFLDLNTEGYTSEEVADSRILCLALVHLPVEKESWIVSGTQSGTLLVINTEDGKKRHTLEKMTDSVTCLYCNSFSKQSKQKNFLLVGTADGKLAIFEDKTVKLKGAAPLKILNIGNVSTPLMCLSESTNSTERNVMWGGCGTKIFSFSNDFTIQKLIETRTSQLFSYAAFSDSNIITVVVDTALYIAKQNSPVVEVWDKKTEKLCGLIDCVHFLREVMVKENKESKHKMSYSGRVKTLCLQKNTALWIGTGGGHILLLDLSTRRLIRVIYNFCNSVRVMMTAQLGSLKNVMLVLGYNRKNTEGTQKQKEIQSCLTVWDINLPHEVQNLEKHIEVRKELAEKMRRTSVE
How it was run: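 Purified human LRRK2 G2019S (16 ng) with 25 μM ATP and 0.2 μg substrate, 2 h at 25° C in 40 mM Tris-HCl pH 7.4, 20 mM MgCl2, 0.5 mg/ml BSA, 50 μM DTT; compound at 12 final concentrations from 50 μM downward. ADP-Glo luminescence versus solvent control gave IC50 (nM).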

LRRK2 = LRRK2 (Homo sapiens, UniProt Q5S007); test: LRRK2 enzyme inhibition, ADP-Glo kinase assay; assay type: biochemical; design: purchased Invitrogen PR8604B
LRRK2, sequence (Q5S007 970-2527 limits assumed): as the sequence (Q5S007 970-2527 G2019S limits assumed) above, with S1050G counted along it
How it was run: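 Purified human LRRK2 (25 ng) in 40 mM Tris-HCl pH7.4, 20 mM MgCl2, 0.5 mg/ml BSA, 50 μM DTT with 10 μM ATP and substrate ([…]), 2 h at 25° C. Final compound 50 to 0.000001024 μM, 12-point dilution. ADP-Glo luminescence vs solvent control; IC50 (nM).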

human GST-CLK1 (129-end) = target: T4, human GST-CLK1 (129-end) (Homo sapiens, UniProt P49759); test: GST-CLK1 enzyme inhibition, ADP-Glo kinase assay; assay type: biochemical; conditions: ATP 10 uM
T4 construct: purified human GST-CLK1 (129-end, Signalchem) enzyme; GST; purchased Signalchem
T4 sequence (P49759 129-484 limits assumed): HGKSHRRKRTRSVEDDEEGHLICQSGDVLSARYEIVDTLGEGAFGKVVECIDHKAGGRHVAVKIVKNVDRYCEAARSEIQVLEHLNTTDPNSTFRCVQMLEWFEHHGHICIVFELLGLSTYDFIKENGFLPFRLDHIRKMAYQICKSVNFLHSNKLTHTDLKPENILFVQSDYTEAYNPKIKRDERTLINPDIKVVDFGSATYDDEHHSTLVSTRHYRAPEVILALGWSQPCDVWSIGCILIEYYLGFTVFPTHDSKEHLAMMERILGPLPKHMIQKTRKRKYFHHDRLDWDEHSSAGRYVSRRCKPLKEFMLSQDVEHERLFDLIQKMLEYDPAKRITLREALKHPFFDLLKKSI
How it was run: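 GST-CLK1 (129-end, 3 ng) reacted with 10 uM ATP and substrate in 40 mM Tris-HCl pH 7.4, 20 mM MgCl2, 0.5 mg/mL BSA, 50 uM DTT, 1 h at 25° C. ADP-Glo luminescence normalised to solvent control; IC50 from triplicate data.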

TTK = target: T5, TTK (Homo sapiens, UniProt P33981); test: TTK enzyme inhibition, ADP-Glo kinase assay; assay type: biochemical; design: purchased Signalchem T20-10G; conditions: ATP 5 μM
T5 sequence (P33981 1-857): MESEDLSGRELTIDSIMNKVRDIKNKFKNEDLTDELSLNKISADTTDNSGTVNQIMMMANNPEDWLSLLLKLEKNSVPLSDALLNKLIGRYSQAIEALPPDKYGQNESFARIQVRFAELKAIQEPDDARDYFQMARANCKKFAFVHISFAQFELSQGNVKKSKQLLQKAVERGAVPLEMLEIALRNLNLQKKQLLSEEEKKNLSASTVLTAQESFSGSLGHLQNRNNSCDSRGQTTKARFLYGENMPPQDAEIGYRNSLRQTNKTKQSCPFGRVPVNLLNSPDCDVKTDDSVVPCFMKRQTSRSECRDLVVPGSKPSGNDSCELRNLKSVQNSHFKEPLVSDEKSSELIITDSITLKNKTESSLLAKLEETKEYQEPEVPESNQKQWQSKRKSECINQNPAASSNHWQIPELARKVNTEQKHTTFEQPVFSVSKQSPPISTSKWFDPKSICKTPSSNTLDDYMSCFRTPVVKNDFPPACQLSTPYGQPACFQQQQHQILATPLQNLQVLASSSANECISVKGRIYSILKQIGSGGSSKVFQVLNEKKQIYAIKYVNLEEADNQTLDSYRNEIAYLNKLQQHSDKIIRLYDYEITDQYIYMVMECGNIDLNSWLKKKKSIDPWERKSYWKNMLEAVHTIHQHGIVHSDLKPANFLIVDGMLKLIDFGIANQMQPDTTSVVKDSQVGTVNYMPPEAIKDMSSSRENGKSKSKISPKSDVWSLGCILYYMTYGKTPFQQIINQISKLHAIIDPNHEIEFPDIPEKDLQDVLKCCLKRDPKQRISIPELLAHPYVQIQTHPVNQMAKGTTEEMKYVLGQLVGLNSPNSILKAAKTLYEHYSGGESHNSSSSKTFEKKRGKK
Description: In order to evaluate the inhibitory activity of the compounds according to the present invention on LRRK2, LRRK2 (G2019S), DYRK1, CLK1 and TTK kinases, the following experiment was performed.
Example compounds were reacted with the purified human TTK (Signalchem #T20-10G) enzyme to evaluate the enzyme inhibitory ability as follows. The reaction buffer was used as the composition of 40 mM Tris-HCl pH7.4, 20 mM MgCl2, 0.1 mg/ml BSA (5× kinase buffer, Signalchem #K03-09) and 50 μM DTT (Signalchem #D86-09B), and the reaction of all test materials was performed on the reaction buffer. The compound was diluted with 10 mM DMSO stock in […] by a serial dilution method, and the enzyme activity was measured at the final compound concentrations of 1, 0.333333, 0.111111, 0.037037, 0.012346, 0.004115, 0.001372, 0.000457, 0.000152, 0.000051 and 0.000017 μM. In the test, the human TTK (7.5 ng) enzyme was reacted with the purified ATP (5 μM, Promega #V6930) and an MBP enzyme substrate (0.2 μg, Signalchem M42-51N) at 25° C. for 4 hours, and then the enzyme activity was identified using the in vitro ADP-Glo™ kinase assay (Promega #V6930). The enzyme activity reaction liquid, an ADP-Glo reaction liquid and an enzyme potency detection solution were reacted in a ratio of 2:2:1, and the degree of inhibition of enzyme activity was measured by luminescence. The degree of inhibition of enzyme activity according to the treatment concentrations of the respective compounds was calculated based on the luminescence degree of the enzyme activity of a solvent control group that was not treated with the compound, where the concentration of each compound to inhibit enzyme activity inhibition by 50% was determined as an IC50 (nM) value and obtained using Prism (Version 8.2, GraphPad) software.
as §3

COc1cc(S(=O)(=O)N2CCC(N3C[C@@H]4C[C@H]3CO4)CC2)ccc1Nc1cc(C2CC2)c2c(C(F)(F)F)c[nH]c2n1 [Example 240, N-(4-((4-((1S,4S)-2-oxa-5-azabicyclo[2.2.1]heptan-5-yl)piperidin-1-yl)sulfonyl)-2-methoxyphenyl)-4-cyclopropyl-3-(trifluoromethyl)-1H-pyrrolo[2,3-b]pyridin-6-amine]
inhibition at 0.25 µM (human DYRK1A and Tau): 8.9% | inhibition at 0.5 µM (human DYRK1A and Tau): 16.5% | inhibition at 1 µM (human DYRK1A and Tau): 36.3% | IC50 [1]: < 100 nM | IC50 [2]: < 100 nM | IC50 [3]: < 100 nM | GI50 (MDA-MB-231 cell line): 301 to 1000 nM | GI50 (SHP-77): 301 to 1000 nM | IC50 (LRRK2 (G2019S)): 301 to 1000 nM

COCCNc1cc(Nc2ccc(S(=O)(=O)N3CCC(N4CCOCC4)CC3)cc2OC)nc2[nH]cc(C#N)c12 [Example 140, 6-((2-methoxy-4-((4-morpholinopiperidin-1-yl)sulfonyl)phenyl)amino)-4-((2-methoxyethyl)amino)-1H-pyrrolo[2,3-b]pyridine-3-carbonitrile]
IC50 (LRRK2): < 100 nM | IC50 [3]: < 100 nM | GI50 (MDA-MB-231 cell line): < 50 nM | GI50 (SHP-77): 51 to 100 nM | IC50 (LRRK2 (G2019S)): < 100 nM | IC50 (human GST-CLK1 (129-end)): < 100 nM

COc1cc(P2(=O)CCN(C3CCOCC3)CC2)ccc1Nc1cc(C2CC2)c2c(C(F)(F)F)c[nH]c2n1 [Example 102, 4-(4-((4-cyclopropyl-3-(trifluoromethyl)-1H-pyrrolo[2,3-b]pyridin-6-yl)amino)-3-methoxyphenyl)-1-(tetrahydro-2H-pyran-4-yl)-1,4-azaphosphinane 4-oxide]
IC50 [3]: < 100 nM | IC50 (human GST-CLK1 (129-end)): 301 to 1000 nM

COc1cc(P2(=O)CCN(C3COC3)CC2)ccc1Nc1cc(C2CC2)c2c(C(F)(F)F)c[nH]c2n1 [Example 47, 4-(4-((4-cyclopropyl-3-(trifluoromethyl)-1H-pyrrolo[2,3-b]pyridin-6-yl)amino)-3-methoxyphenyl)-1-(oxetan-3-yl)-1,4-azaphosphinane 4-oxide]
IC50 (LRRK2): 101 to 300 nM | inhibition at 0.25 µM (human DYRK1A and Tau): 3.7% | inhibition at 0.5 µM (human DYRK1A and Tau): 15% | inhibition at 1 µM (human DYRK1A and Tau): 22.4% | IC50 [3]: < 100 nM | GI50 (MDA-MB-231 cell line): 301 to 1000 nM | IC50 (human GST-CLK1 (129-end)): < 100 nM

COc1cc(S(C)(=O)=O)ccc1Nc1cc(C2CC2)c2c(C(F)(F)F)c[nH]c2n1 [Example 224, 4-cyclopropyl-N-(2-methoxy-4-(methylsulfonyl)phenyl)-3-(trifluoromethyl)-1H-pyrrolo[2,3-b]pyridin-6-amine]
IC50 (LRRK2): 301 to 1000 nM | IC50 [3]: < 100 nM | IC50 (LRRK2 (G2019S)): 301 to 1000 nM | IC50 (human GST-CLK1 (129-end)): 301 to 1000 nM

COc1cc(S(=O)(=O)N2CCC(N3C[C@H]4C[C@@H]3CO4)CC2)ccc1Nc1cc(C2CC2)c2c(C(F)(F)F)c[nH]c2n1 [Example 239, N-(4-((4-((1R,4R)-2-oxa-5-azabicyclo [2.2.1]heptan-5-yl)piperidin-1-yl)sulfonyl)-2-methoxyphenyl)-4-cyclopropyl-3-(trifluoromethyl)-1H-pyrrolo[2,3-b]pyridin-6-amine]
inhibition at 0.25 µM (human DYRK1A and Tau): 22% | inhibition at 0.5 µM (human DYRK1A and Tau): 50.9% | inhibition at 1 µM (human DYRK1A and Tau): 71.2% | IC50 [1]: < 100 nM | IC50 [2]: < 100 nM | IC50 [3]: < 100 nM | GI50 (MDA-MB-231 cell line): 301 to 1000 nM | GI50 (SHP-77): 301 to 1000 nM | IC50 (LRRK2 (G2019S)): 301 to 1000 nM

O=C(c1ccc(Nc2cc(C3CC3)c3c(C(F)(F)F)c[nH]c3n2)c2c1OCCO2)N1CCN(C2COC2)CC1 [Example 101, (8-((4-cyclopropyl-3-(trifluoromethyl)-1H-pyrrolo[2,3-b]pyridin-6-yl)amino)-2,3-dihydrobenzo[b] [1,4]dioxin-5-yl)(4-(oxetan-3-yl)piperazin-1-yl)methanone]
inhibition at 0.25 µM (human DYRK1A and Tau): 9.9% | inhibition at 0.5 µM (human DYRK1A and Tau): 11.2% | inhibition at 1 µM (human DYRK1A and Tau): 20.7% | IC50 [3]: < 100 nM | IC50 (TTK): < 100 nM | IC50 (human GST-CLK1 (129-end)): 301 to 1000 nM
